# From US6723753B2, “Substituted n-benzyl-n-phenyl aminoalcohol compounds useful for inhibiting cholesteryl ester transfer protein activity” (Pharmacia Corporation, priority 2002, dated 2004)
# Biological target: T1, CETP (Homo sapiens, UniProt P11597)
# T1 sequence (P11597 18-493): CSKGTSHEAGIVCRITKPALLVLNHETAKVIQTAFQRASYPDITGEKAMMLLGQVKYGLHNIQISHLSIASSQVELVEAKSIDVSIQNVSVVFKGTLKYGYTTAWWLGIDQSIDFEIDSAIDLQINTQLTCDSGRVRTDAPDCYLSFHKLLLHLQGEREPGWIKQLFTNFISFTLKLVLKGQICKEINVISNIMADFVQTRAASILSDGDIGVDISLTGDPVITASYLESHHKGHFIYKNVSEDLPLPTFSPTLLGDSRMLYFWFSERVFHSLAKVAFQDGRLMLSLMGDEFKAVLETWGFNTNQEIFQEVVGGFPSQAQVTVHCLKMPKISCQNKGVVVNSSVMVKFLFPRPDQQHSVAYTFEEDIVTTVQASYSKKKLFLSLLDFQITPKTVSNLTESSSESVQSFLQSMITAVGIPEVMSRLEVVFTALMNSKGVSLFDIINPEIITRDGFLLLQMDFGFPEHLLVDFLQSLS
# Assay: Assay of CETP Inhibition using Purified Components (Reconstituted Buffer Assay)
# Assay type: biochemical
# Parameters: made in house; host or cells: CHO cells (serum-free conditioned medium)
# Conditions: IC50, Inhibition of CETP activity in reconstituted buffer assay; transfer of [3H]CE from HDL to LDL
# How it was run: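 Transfer of radiolabeled cholesteryl ester from HDL to LDL was run for 2 h at 37 °C in pH 7.4 Tris buffer with 1% BSA, using purified CHO-expressed human CETP. Precipitated LDL radioactivity, measured by scintillation after dextran sulfate/MgCl2 precipitation and filtration, yielded the IC50.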
row,SMILES,IC50
1,OC(CN(Cc1ccc(OC(F)(F)F)cc1)c1cccc(F)c1)C(F)(F)F (centres unmarked) [Example 57],15 µM

# Same assay, conditions: Inhibition of CETP activity in reconstituted buffer assay; transfer of [3H]CE from HDL to LDL; read-out: IC50
row,SMILES,IC50
1,COc1ccc(CN(CC(O)C(F)(F)F)c2cccc(OC(F)(F)F)c2)cc1OC (centres unmarked) [Example 116],40 µM
2,Cc1cc(-c2cccc(N(Cc3cccc(OC(F)(F)C(F)F)c3)CC(O)C(F)(F)F)c2)cc(C)c1N(C)C (centres unmarked) [Example 563],> 50 µM
3,OC(CN(Cc1cc(C(F)(F)F)cc(C(F)(F)F)c1)c1cccc(F)c1)C(F)(F)F (centres unmarked) [Example 677],> 100 µM
4,OC(CN(Cc1ccc(C(F)(F)F)cc1)Cc1ccccc1F)C(F)(F)F (centres unmarked) [compound 171],> 100 µM
5,Cc1cccc(CN(CC(O)C(F)(F)F)c2cccc(Cl)c2)c1 (centres unmarked) [Example 9],> 100 µM
6,Cc1cccc(CN(Cc2ccccc2F)CC(O)C(F)(F)F)c1 (centres unmarked) [compound 183],> 100 µM
7,Cc1ccc(CN(CC(O)C(F)(F)F)c2cccc(F)c2F)cc1 (centres unmarked) [Example 681],> 100 µM
8,CCN(C)C(=O)c1cccc(CN(CC(O)C(F)(F)F)c2cccc(Oc3ccccc3)c2)c1 (centres unmarked) [compound 613],10 µM
9,CSc1ccccc1NC(=O)N(CC(O)C(F)(F)F)c1cccc(OC(F)(F)F)c1 (centres unmarked) [Example 368],> 100 µM
10,Cc1ccc(CN(Cc2cccc(F)c2)CC(O)C(F)(F)F)cc1 (centres unmarked) [compound 178],> 100 µM
11,OC(CN(Cc1cccc(OC(F)(F)C(F)F)c1)c1cccc(OCc2ccccc2Br)c1)C(F)(F)F (centres unmarked) [Example 403],1.5 µM
12,Oc1cc(CN(CC(O)C(F)(F)F)c2cccc(OC(F)(F)F)c2)cc(O)c1O (centres unmarked) [Example 359],> 100 µM
13,CC(C)(CO)COc1cccc(N(Cc2cccc(OC(F)(F)C(F)F)c2)CC(O)C(F)(F)F)c1 (centres unmarked) [Example 512],6.1 µM
14,OC(CN(Cc1ccc(F)cc1F)c1cccc(OC(F)(F)F)c1)C(F)(F)F (centres unmarked) [Example 329],> 100 µM
15,COc1ccc(N(Cc2cccc(C)c2)CC(O)C(F)(F)F)cc1 (centres unmarked) [Example 28],75 µM
16,OC(CN(Cc1ccc(C(F)(F)F)cc1)Cc1cccc(F)c1)C(F)(F)F (centres unmarked) [compound 169],> 100 µM
17,OC(CN(Cc1cccc(F)c1)Cc1cccc(C(F)(F)F)c1)C(F)(F)F (centres unmarked) [compound 190],> 100 µM
18,"OC(CN(Cc1cccc(OC(F)(F)F)c1)c1nc(Cl)nc(Oc2ccc(F)cc2)n1)C(F)(F)F (centres unmarked) [Example 632, N-[2-chloro-6-(p-fluorophenoxy)-1,3,5-triazin-4-yl]-3-[[[3-(trifluoromethoxy)phenyl]methyl]amino]-1,1,1-trifluoro-2-propanol]",6.8 µM
19,CSc1ccc(Cc2cccc(N(Cc3cccc(OC(F)(F)C(F)F)c3)CC(O)C(F)(F)F)c2)cc1 (centres unmarked) [Example 526],1.4 µM
20,N#Cc1cccc(CN(CC(O)C(F)(F)F)c2cccc(Oc3ccccc3)c2)c1 (centres unmarked) [Example 147],8 µM
21,COc1ccc(CN(CC(O)C(F)(F)F)c2cccc(OC(F)(F)F)c2)cc1 (centres unmarked) [Example 347],15 µM
22,OC(CN(Cc1cccc(OC(F)(F)C(F)F)c1)c1cccc(OCc2ccc(C(F)(F)F)cc2)c1)C(F)(F)F (centres unmarked) [Example 416],0.51 µM

row,SMILES,IC50
1,CCCOc1ccc(CN(CC(O)C(F)(F)F)c2cccc(OC(F)(F)F)c2)cc1 (centres unmarked) [Example 125],25 µM
2,OC(CN(Cc1cccc(C(F)(F)F)c1)c1cccc(Br)c1)C(F)(F)F (centres unmarked) [Example 30],22 µM
3,OC(CN(Cc1cccc(C(F)(F)F)c1)c1ccc(F)c(C(F)(F)F)c1)C(F)(F)F (centres unmarked) [Example 52],7 µM
4,COc1cccc(-c2cccc(N(Cc3cccc(OC(F)(F)C(F)F)c3)CC(O)C(F)(F)F)c2)c1 (centres unmarked) [Example 571],1.6 µM
5,O=[N+]([O-])c1cccc(CN(Cc2cccc(OC(F)(F)F)c2)CC(O)C(F)(F)F)c1 (centres unmarked) [compound 197],18 µM
6,OC(CN(Cc1cccc(OC(F)(F)C(F)F)c1)c1cccc(Cc2cc(Cl)cc(Cl)c2)c1)C(F)(F)F (centres unmarked) [Example 518],0.79 µM
7,OC(CN(Cc1cccc(OC(F)(F)C(F)F)c1)c1cccc(Oc2cncnc2)c1)C(F)(F)F (centres unmarked) [Example 449],3.9 µM
8,OC(CN(Cc1cccc(OC(F)(F)C(F)F)c1)c1cccc(-c2ccc(Cl)cc2)c1)C(F)(F)F (centres unmarked) [Example 565],1.5 µM
9,CS(=O)(=O)c1ccc(Sc2cccc(N(Cc3cccc(OC(F)(F)C(F)F)c3)CC(O)C(F)(F)F)c2)cc1 (centres unmarked) [Example 479],> 50 µM
10,COc1cccc(CN(CC(O)C(F)(F)F)c2cccc(OC)c2)c1 (centres unmarked) [Example 123],90 µM
11,Cc1cccc(CN(CC(O)C(F)(F)F)c2cccc(C)c2)c1 (centres unmarked) [Example 11],> 100 µM
12,"O=C(O)c1cccc(COc2cccc(N(Cc3cccc(OC(F)(F)C(F)F)c3)CC(O)C(F)(F)F)c2)c1 (centres unmarked) [Example 435, 3-[[3-[[[3-(1,1,2,2-tetrafluoroethoxy)phenyl]methyl](3,3,3-trifluoro-2-hydroxypropyl)amino]phenoxy]methyl]benzoic Acid]",> 50 µM
13,OC(CN(Cc1cccc(OC(F)(F)C(F)F)c1)c1cccc(OCc2ccncc2)c1)C(F)(F)F (centres unmarked) [Example 433],5.6 µM
14,"OC(CN(Cc1cccc(C(F)(F)F)c1)c1cccc(F)c1)C(F)(F)F (centres unmarked) [Example 1, 3-[(3-fluorophenyl)[[3-(3-trifluoromethyl)phenyl]methyl]amino]-1,1,1-tri-fluoro-2-propanol]",38 µM
15,OC(CN(Cc1cccc(Oc2ccccc2)c1)c1ccc(-c2ccccc2)cc1)C(F)(F)F (centres unmarked) [Example 86],20 µM
16,OC(CN(Cc1cccc(OC(F)(F)C(F)F)c1)c1cccc(OCc2ccc(F)cc2C(F)(F)F)c1)C(F)(F)F (centres unmarked) [Example 381],1.2 µM
17,OC(CN(Cc1cccc(-c2ccccc2)c1)c1cccc(Oc2ccccc2)c1)C(F)(F)F (centres unmarked) [Example 606],4.2 µM
18,"CCN(CC)c1ccc(CN(CC(O)C(F)(F)F)c2cccc(Oc3ccccc3)c2)cc1 (centres unmarked) [Example 631, 3-[(3-phenoxyphenyl)[[4-(N,N-diethylamino)phenyl]methyl]amino]-1,1,1-trifluoro-2-propanol]",> 100 µM
19,OC(CN(Cc1cccc(C(F)(F)F)c1)c1ccc(F)c(F)c1)C(F)(F)F (centres unmarked) [Example 19],15 µM
20,Cc1cccc(CN(CC(O)C(F)(F)F)c2ccc(Cl)c(C(F)(F)F)c2)c1 (centres unmarked) [Example 67],15 µM
21,COc1cccc(N(Cc2cccc(OC(F)(F)F)c2)CC(O)C(F)(F)F)c1 (centres unmarked) [Example 124],8 µM
22,CCOc1ccc(CN(CC(O)C(F)(F)F)c2cccc(OC(F)(F)F)c2)cc1 (centres unmarked) [Example 158],12 µM

row,SMILES,IC50
1,OC(CN(Cc1cccc(Oc2ccccc2)c1)c1ccc(C(F)(F)F)cc1)C(F)(F)F (centres unmarked) [Example 111],65 µM
2,OC(CN(Cc1ccc2c(c1)OCCO2)c1cccc(Oc2ccccc2)c1)C(F)(F)F (centres unmarked) [Example 137],20 µM
3,CCOc1cccc(CN(CC(O)C(F)(F)F)c2cccc(OC(F)(F)F)c2)c1 (centres unmarked) [Example 101],6 µM
4,Oc1cc(O)cc(CN(CC(O)C(F)(F)F)c2cccc(OC(F)(F)F)c2)c1 (centres unmarked) [Example 360],> 100 µM
5,OC(CN(Cc1cccc(F)c1)c1cccc(C(F)(F)F)c1)C(F)(F)F (centres unmarked) [Example 46],> 100 µM
6,O=C(NC1CCCCC1)c1cccc(N(Cc2cccc(OC(F)(F)C(F)F)c2)CC(O)C(F)(F)F)c1 (centres unmarked) [Example 459],3.3 µM
7,CC(C)COC(=O)Nc1cccc(N(Cc2cccc(OC(F)(F)C(F)F)c2)CC(O)C(F)(F)F)c1 (centres unmarked) [Example 538],> 50 µM
8,Cc1cc(Cc2cccc(N(Cc3cccc(OC(F)(F)C(F)F)c3)CC(O)C(F)(F)F)c2)ccc1Cl (centres unmarked) [Example 522],1.4 µM
9,OC(CN(Cc1cccc(OC(F)(F)C(F)F)c1)c1cccc(Cc2ccc(F)cc2)c1)C(F)(F)F (centres unmarked) [Example 519],2.5 µM
10,Cc1ncccc1Oc1cccc(N(Cc2cccc(OC(F)(F)C(F)F)c2)CC(O)C(F)(F)F)c1 (centres unmarked) [Example 289],1.8 µM
11,O=[N+]([O-])c1ccc(COc2cccc(N(Cc3cccc(OC(F)(F)C(F)F)c3)CC(O)C(F)(F)F)c2)cc1 (centres unmarked) [Example 375],4.5 µM
12,CC(C)(C)NC(=O)c1cccc(N(Cc2cccc(OC(F)(F)C(F)F)c2)CC(O)C(F)(F)F)c1 (centres unmarked) [Example 460],3 µM
13,Cc1ccc(-c2cccc(N(Cc3cccc(OC(F)(F)C(F)F)c3)CC(O)C(F)(F)F)c2)cc1 (centres unmarked) [Example 566],2.7 µM
14,Cc1cccc(CN(CC(O)C(F)(F)F)c2cccc(C(F)(F)F)c2F)c1 (centres unmarked) [Example 680],> 100 µM
15,OC(CN(Cc1cccc(C(F)(F)F)c1)Cc1ccccc1F)C(F)(F)F (centres unmarked) [compound 184],> 100 µM
16,OC(CN(Cc1ccc(C(F)(F)F)cc1)Cc1cccc(Cl)c1)C(F)(F)F (centres unmarked) [compound 172],7 µM
17,N#Cc1cccc(N(Cc2cccc(OC(F)(F)F)c2)CC(O)C(F)(F)F)c1 (centres unmarked) [Example 162],7 µM
18,N#Cc1cccc(CN(CC(O)C(F)(F)F)c2cccc(OC(F)(F)F)c2)c1 (centres unmarked) [Example 327],> 100 µM
19,COc1c(Cl)cc(-c2cccc(N(Cc3cccc(OC(F)(F)C(F)F)c3)CC(O)C(F)(F)F)c2)cc1Cl (centres unmarked) [Example 555],2.5 µM
20,OC(CN(Cc1cccc(Oc2cccc(C(F)(F)F)c2)c1)c1cccc(C(F)(F)F)c1)C(F)(F)F (centres unmarked) [Example 108],60 µM
